Assay results from publication PMC10328974, “Molecular mechanism of plasmid-borne resistance to sulfonamide antibiotics” (Nature Communications, 2023).
In brackets after ≈: the same amount, converted by molar mass.

Legend:
WT E. coli BW25113 = test system: T1, WT E. coli BW25113; assay: microbe, parasite or virus in culture; set-up: agar dilution MIC on MHII agar, lowest concentration inhibiting bacterial growth; conditions: Escherichia coli, BW25113, 18 h, read-out: MIC (ug/mL)
T1 construct: BW25113
Procedure: The susceptibilities of various E. coli strains to sulfonamide antibiotics were assessed using the agar dilution method[85] with the exception that MHII agar (Sigma) plates were used, as this agar is specifically formulated to have low levels of thymine and thymidine content, both of which are known to antagonize the action of sulfonamides. Antibiotics used were: sulfamethoxazole (SMX) (Sigma-Aldrich), 50 mg/mL in DMSO; sulfadiazine (SDZ) (Sigma-Aldrich), 100 mg/mL in 1 M NaOH; sulfanilamide (SAA) (Sigma-Aldrich), 50 mg/mL in acetone; sulfisoxazole (SOZ) (TCI America) 50 mg/mL on acetone; sulfathiazole (STZ) (Sigma-Aldrich) 50 mg/mL in acetone: sulfapyridine (SPY) (Sigma-Aldrich) 40 mg/mL in 0.5 M NaOH; sulfamerazine (SMRZ) (AK Scientific), 50 mg/mL in DMSO; sulfamethazine (SMZ) (Alfa Aesar), 50 mg/mL in DMSO; sulfameter (SMT) (Sigma-Aldrich) 100 mg/mL in DMSO; sulfacetamide (SAD) (Sigma-Aldrich) 100 mg/mL in DMSO; sulfaquinoxaline (SQX) (Sigma-Aldrich), 50 mg/mL in DMSO; sulfadimethoxine (SDT) (Sigma-Aldrich), 100 mg/m: in 1 N NaOH. Freshly streaked E. coli colonies were resuspended in sterile 0.9% NaCl solution and the turbidity of the suspension adjusted to that of a McFarland Standard of 0.5 using a Sensititre Nephelometer (Thermo Fisher Scientific) calibrated to a McFarland 0.5 BaSO4 standard. The bacterial suspension was diluted 1:10 into a well of a sterile 96-well microtitre plate by pipetting 10 μL into a well containing 90 μL of sterile saline. A 48-pin replicator with 1.5 mm pins was used to deliver the final inoculum of 1 μL (~10^4 […]) onto MHII agar plates containing various concentrations of either SMX, SDZ, SAA, SOZ STZ, SPY, SMRZ, SMZ, SMT, SAD, SQX, or SDT. […] Inoculated sulfa-agar plates were incubated 37 °C for 18 h and the minimum inhibitory concentration (MIC) was determined to be the lowest concentration of drug that inhibited bacterial growth. In all instances, a drug-free control plate was included to ensure bacterial growth. The ∆folP deletion strain, which is auxotrophic for thymidine

EcDHPS = target: T2, EcDHPS (Escherichia coli, UniProt P0AC13, F190W/W92F); assay: intrinsic tryptophan fluorescence titration; assay type: binding
T2 construct: gene folP; 1-282 amino acids
T2 sequence (P0AC13 1-282 W92F/F190W): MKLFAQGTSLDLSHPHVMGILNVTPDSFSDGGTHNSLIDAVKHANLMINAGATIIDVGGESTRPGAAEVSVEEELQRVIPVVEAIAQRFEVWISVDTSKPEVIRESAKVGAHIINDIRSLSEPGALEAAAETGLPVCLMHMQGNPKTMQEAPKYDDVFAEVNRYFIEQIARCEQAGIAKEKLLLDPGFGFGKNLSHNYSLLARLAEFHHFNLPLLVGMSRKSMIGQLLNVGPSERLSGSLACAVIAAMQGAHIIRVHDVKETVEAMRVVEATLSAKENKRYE

[1] = target: T3, EcDHPS (dihydropteroate synthase) (Escherichia coli, UniProt P0AC13); assay: biochemical
T3 construct: gene folP

Sul3 = target: T4, Sul3 (Escherichia coli, UniProt C0HMD9, F177G); assay: coupled malachite green DHPS activity assay, competition with pABA; assay type: biochemical; conditions: read-out: Sulfa (SMX) / Ki
T4 sequence (C0HMD9 1-242 F177G): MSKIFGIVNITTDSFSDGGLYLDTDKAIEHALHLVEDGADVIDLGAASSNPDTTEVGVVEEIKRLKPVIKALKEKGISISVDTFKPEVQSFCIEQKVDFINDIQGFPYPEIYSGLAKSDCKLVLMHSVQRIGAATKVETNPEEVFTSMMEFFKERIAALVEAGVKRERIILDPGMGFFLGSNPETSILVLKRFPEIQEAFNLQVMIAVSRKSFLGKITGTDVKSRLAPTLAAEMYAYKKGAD

SMILES | MIC (WT E. coli BW25113) [µg/mL] | other results
COc1cc(NS(=O)(=O)c2ccc(N)cc2)nc(OC)n1 [SDT, sulfadimethoxine] | 256 (≈ 825 µM) | –
Nc1nc(O)c2c(n1)NCC(COP(=O)(O)OP(=O)(O)O)=N2 [DHPP, 6-hydroxymethyl-7,8-dihydropterin pyrophosphate] | – | Kd (EcDHPS): 8 µM
Cc1cc(NS(=O)(=O)c2ccc(N)cc2)no1 [SMX, sulfamethoxazole] | 16 (≈ 63.2 µM) | Ki [1]: 5.15 ± 1.1 µM; Ki (Sul3): 4.16 ± 0.3 µM
Cc1cc(C)nc(NS(=O)(=O)c2ccc(N)cc2)n1 [SMZ, sulfamethazine] | 256 (≈ 920 µM) | –
Nc1ccc(S(=O)(=O)Nc2ncccn2)cc1 [SDZ, sulfadiazine] | 32 (≈ 128 µM) | –
CC(=O)NS(=O)(=O)c1ccc(N)cc1 [SAD, sulfacetamide] | 512 (≈ 2390 µM) | –
Cc1ccnc(NS(=O)(=O)c2ccc(N)cc2)n1 [SMRZ, sulfamerazine] | 32 (≈ 121 µM) | –
Nc1ccc(S(N)(=O)=O)cc1 [SAA, sulfanilamide] | 2050 (≈ 11900 µM) | –
COc1cnc(NS(=O)(=O)c2ccc(N)cc2)nc1 [SMT, sulfameter] | 128 (≈ 457 µM) | –

Now from value to compound, other results behind:

MIC (WT E. coli BW25113) [µg/mL] | SMILES | other results
16 (≈ 62.7 µM) | Nc1ccc(S(=O)(=O)Nc2nccs2)cc1 [STZ, sulfathiazole] | –
64 (≈ 257 µM) | Nc1ccc(S(=O)(=O)Nc2ccccn2)cc1 [SPY, sulfapyridine] | –
32 (≈ 120 µM) | Cc1noc(NS(=O)(=O)c2ccc(N)cc2)c1C [SOZ, sulfisoxazole] | –
512 (≈ 1700 µM) | Nc1ccc(S(=O)(=O)Nc2cnc3ccccc3n2)cc1 [SQX, sulfaquinoxaline] | –
